The assay has as its target T1, human SLO3 (Homo sapiens, UniProt A8MYU2).
T1 construct: expressed in transfected cells
T1 sequence (A8MYU2 1-1149): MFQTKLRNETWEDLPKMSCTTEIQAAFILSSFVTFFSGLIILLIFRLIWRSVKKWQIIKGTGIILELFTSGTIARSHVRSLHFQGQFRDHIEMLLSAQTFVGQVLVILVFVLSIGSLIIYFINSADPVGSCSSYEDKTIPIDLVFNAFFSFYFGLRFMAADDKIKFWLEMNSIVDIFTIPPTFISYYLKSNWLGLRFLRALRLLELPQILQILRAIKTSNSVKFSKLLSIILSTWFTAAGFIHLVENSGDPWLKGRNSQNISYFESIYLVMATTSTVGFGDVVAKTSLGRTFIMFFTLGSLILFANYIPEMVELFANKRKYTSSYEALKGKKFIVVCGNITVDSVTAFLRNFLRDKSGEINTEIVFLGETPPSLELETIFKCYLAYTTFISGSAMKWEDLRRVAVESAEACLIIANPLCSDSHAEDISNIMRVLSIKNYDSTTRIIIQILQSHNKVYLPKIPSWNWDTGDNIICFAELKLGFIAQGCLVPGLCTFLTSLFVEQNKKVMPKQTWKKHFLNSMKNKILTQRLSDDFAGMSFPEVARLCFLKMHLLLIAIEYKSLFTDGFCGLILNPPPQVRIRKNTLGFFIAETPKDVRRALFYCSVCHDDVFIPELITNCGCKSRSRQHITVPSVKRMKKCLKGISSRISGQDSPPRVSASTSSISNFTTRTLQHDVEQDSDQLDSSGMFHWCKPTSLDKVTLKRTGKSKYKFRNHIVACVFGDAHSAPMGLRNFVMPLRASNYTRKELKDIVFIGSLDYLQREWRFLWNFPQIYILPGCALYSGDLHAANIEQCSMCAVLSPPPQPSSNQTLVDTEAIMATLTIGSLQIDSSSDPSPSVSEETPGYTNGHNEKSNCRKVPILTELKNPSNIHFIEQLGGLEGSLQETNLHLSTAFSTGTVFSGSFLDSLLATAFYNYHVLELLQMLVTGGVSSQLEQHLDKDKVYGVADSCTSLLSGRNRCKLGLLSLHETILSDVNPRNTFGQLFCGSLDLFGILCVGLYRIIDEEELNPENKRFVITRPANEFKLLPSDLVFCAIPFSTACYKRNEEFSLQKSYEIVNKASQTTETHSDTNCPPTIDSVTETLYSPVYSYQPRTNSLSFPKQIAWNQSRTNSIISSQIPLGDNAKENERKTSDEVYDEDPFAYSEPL
T1 sequence (Q8N7C0 24-313 partner): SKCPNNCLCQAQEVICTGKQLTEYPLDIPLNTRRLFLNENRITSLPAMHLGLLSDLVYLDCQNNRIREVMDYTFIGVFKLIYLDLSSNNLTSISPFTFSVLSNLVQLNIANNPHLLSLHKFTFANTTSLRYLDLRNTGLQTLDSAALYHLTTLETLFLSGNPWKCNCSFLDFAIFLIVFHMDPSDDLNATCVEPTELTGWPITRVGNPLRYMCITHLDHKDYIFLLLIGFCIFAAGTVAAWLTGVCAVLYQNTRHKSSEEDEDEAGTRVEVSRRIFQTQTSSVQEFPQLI
The experiment in a line: SLO3 patch-clamp electrophysiology, human SLO3-γ2 expressed in HEK293 cells. The format is cell-based. As to conditions: for IC50: transfected HEK293 cells (human SLO3-γ2), whole-cell patch clamp, currents at +100 mV, read-out: hSLO3 IC50; for inhibition at 10 µM: HEK293, read-out: HEK hSLO3 % of inhib. at 10 μM. As to the method: HEK293 cells were transfected with the bicistronic vector pBUD-CE4.1 containing the genes of interest and a gene conferring antibiotic resistance. Cells were exposed to gradients of selection antibiotics, and optimal growth conditions for the stable lines were as follows: SLO3 and γ2 (SLO3-γ2) supplemented with 700 μg/mL Zeocin (Invitrogen); human SLO1 and β1 (SLO1-β1) with 1 mg/mL G418 (Sigma) and 3 μg/mL puromycin (Corning, Thermo Fisher); and human SLO1 and β4 (SLO1-β4) with 250 μg/mL Zeocin and 3 μg/mL puromycin. All cell lines were grown in Dulbecco’s Modified Eagle Medium (Gibco, Thermo Fisher) supplemented with 10% fetal bovine serum, 1% penicillin–streptomycin (Millipore Sigma), and selection antibiotics. To generate cells expressing SLO1 and γ2, stable SLO1-expressing HEK293 cells were transiently transfected with expression vectors for γ2 and green fluorescent protein (GFP) in the presence of lipofectamine (Invitrogen) for 5 h.
The cells were then washed and incubated in supplemented Dulbecco’s Modified Eagle Medium for 48 h before use. Patch-clamp electrophysiology was performed only on cells expressing GFP.
Currents in HEK293 cells were measured in the whole-cell patch-clamp configuration with an Axopatch 200B amplifier, digitized with a Digidata 1440A, and interfaced with Clampex 10.6.0.13 (Molecular Devices). […] An isolated cell was located on an Axiovert 200 microscope (Zeiss), and a gigaohm seal was formed with a borosilicate pipette with resistance between 3 and 6 MΩ and filled with internal solution (140 mM KMeSO3, 10 mM HEPES, 10 mM MES, 1 mM EGTA, pH 7). The seal was then broken by applying a negative pressure. Cells were kept at a holding potential of −60 mV for 50 ms, tested with a stepped voltage protocol from −80 to +150 mV in 10 mV increments for 100 ms, and then dropped to −40 mV for 50 ms with 2.5 s between sweeps. This protocol was used to record currents present with increasing concentration of our compound of interest or 3 μL/mL vehicle (DMSO) in the bath solution. Individual cells were tested with between 1 and 5 concentrations of the compound of interest or until the patch was lost. Currents were allowed to stabilize before the initial recording and after the perfusion solution was changed before recording.
Data were analyzed with a pClamp 10.6 (Molecular Devices). VU6047606 and VU6032735 inhibition dose–response relationships were fit by the Hill equation in OriginPro 7.5 (OriginLab Corporation): R=1/1+(C/IC50)^n+Ioff , in which R is fractional unblock, C is compound concentration, IC50 is the half inhibition concentration, n is the Hill coefficient, and I off is an offset item for leak current. Error bars in the figures represent the SDs. Each data point is averaged from at least 5 measurements. Curve-fitting results are reported as the fitted values with standard error, which was estimated by OriginPro according to the Error Propagation formula.

The structures appear in SMILES notation.

Take `Cc1cc(Cl)cc2sc(OC3CCN(C(=O)CCCS(=O)(=O)c4cccc(Br)c4)CC3F)nc12` (centres unmarked) [VU6045330]: the IC50 came to 135 nM.

On to `Cc1cc(Cl)cc2sc(O[C@H]3CCN(C(=O)CCCS(=O)(=O)c4cccc(Br)c4)C[C@H]3F)nc12` [VU6047606], for which the inhibition at 10 µM came out at 100% and the IC50 was found to be 43 nM.

As to `O=C(c1ccc(OCc2ccc(OC(F)(F)F)cc2)cc1)N1CCN(c2ccc(C(F)(F)F)cn2)CC1` [VU6032735], the inhibition at 10 µM came to 100% and the IC50 amounted to 165 nM.

Consider `Cc1cc(Cl)cc2sc(O[C@@H]3CCN(C(=O)CCCS(=O)(=O)c4cccc(Br)c4)C[C@@H]3F)nc12` [VU6047608], for which the IC50 turned out to be 583 nM.

`Cc1cc(Cl)cc2sc(O[C@H]3CCN(C(=O)CCCS(=O)(=O)c4cccc(Br)c4)C[C@@H]3F)nc12` [VU6047609]: the IC50 is 112 nM.

As for `Cc1cc(Cl)cc2sc(O[C@@H]3CCN(C(=O)CCCS(=O)(=O)c4cccc(Br)c4)C[C@H]3F)nc12` [VU6047607], the IC50 worked out at 457 nM.

Values taken from publication PMC12441834, “Highly Potent and Subtype-Selective Sperm-Specific Potassium Channel SLO3 Inhibitors Display High Tissue Exposure in the Murine Female Reproductive Tract” (ACS Pharmacology & Translational Science, 2025).
